# Structures can show the parent of a compound that is named as a salt. Where two headings read alike, the source gives them in different places.
# Assays:
# H69 cells = assay: Cell viability assay (CellTiter-Glo), H69 wild type; type: cell-based; settings: wild type H69, 120 h incubation
# Method: (§1) H69 cells and the drug-resistant counterpart H69AR were obtained from the American Type Culture Collection and were grown according to standard protocols. The effects of cryptophycin and cryptophycin conjugates on the viability of wild type and drug resistant tumor cell lines were assessed using the CellTiter-Glo® Luminescent Cell Viability Assay (Promega), according to the manufacturer protocol. Cells were plated in black-walled 96-well plates (5000 cells per well) and allowed to adhere overnight at 37° C. in a humidified atmosphere of 5% CO2. Medium was then removed and replaced by fresh culture medium containing increasing concentrations of cryptophycin analogs or doxorubicin as a control. Cells were incubated with compounds for 120 h at 37° C. in 5% CO2. Eight triplicate 1:3 serial dilution datapoints were recorded for each experimental condition (from […] to 10 nM for CRY55-Gly, CRY55-Gly-LINKER73 and CRY55-Gly-LINKER76, from 1.2 nM to 2700 nM for doxorubicin). At the end of the incubation, luminescence was measured using a Perkin Elmer Wallac 1450 MicroBeta TriLux detector. Compound cytotoxicity was evaluated in comparison to cells treated with 0.1% DMSO.
# H69AR cells = assay: Cell viability assay (CellTiter-Glo), drug-resistant H69AR; type: cell-based; settings: for IC50: 120 h incubation
# Method: as §1
# SK-BR3 cells = assay: Cell viability assay (CellTiter-Glo), SK-BR3; type: cell-based; settings: read-out: SK-BR3 CC50
# Method: (§2) Tumor cell lines (breast carcinoma cell lines SKBR-3 and MCF7 and colon carcinoma cell line HCT116) were obtained from American Type Culture Collection and were grown according to standard protocols. […] The effects of the cryptophycin-55-glycinate ADC conjugate on tumor cell viability were assessed using the CellTiter-Glo® Luminescent Cell Viability Assay (Promega), according to the manufacturer protocol. […] Cells were plated in black-walled 96-well plates (5000 cells per well for SKBR-3 and MCF7; 2000 cells per well for HCT116) and allowed to adhere overnight at 37° C. in a humidified atmosphere of 5% CO2. […] Five to eight triplicate datapoints were recorded for each experimental condition. At the end of the incubation luminescence was measured using a Perkin Elmer Wallac 1450 MicroBeta TriLux detector. Compound cytotoxicity was evaluated in comparison to cells treated with PBS (antibodies) or 0.1% DMSO (compounds). CC50 values were calculated by fitting viability data with a four-parameter logistic equation using a Kaleidagraph software.
# MCF7 cells [1] = assay: Cell viability assay (CellTiter-Glo), MCF7, 96 h; type: cell-based, human; settings: read-out: MCF7 CC50
# Method: as §2
# HCT116 cells = assay: Cell viability assay (CellTiter-Glo), HCT116; type: cell-based; settings: read-out: HCT116 CC50
# Method: as §2
# MCF7 cells [2] = assay: Cell viability assay (CellTiter-Glo), MCF7, 120 h; type: cell-based, human; settings: for IC50: read-out: IC50, MCF7
# Method: (§3) Tumor cell lines (the rat pancreatic tumor cell line AR42J and the human breast carcinoma cell line MCF7) were obtained from the American Type Culture Collection and were grown according to standard protocols.
# (§4) The effects of the cryptophycin-55-glycinate-octreotide conjugate of Example 5 on the viability of the tumor cell lines AR42J (STTR2^high) and MCF7 (SSTR2^low) were assessed using the CellTiter-Glo® Luminescent Cell Viability Assay (Promega), according to the manufacturer protocol. Cells were plated in black-walled 96-well plates (5000 cells per well) and allowed to adhere overnight at 37° C. in a humidified atmosphere of 5% CO2. Medium was then removed and replaced by fresh culture medium containing increasing concentrations of cryptophycin-55-glycinate-octreotide conjugate (CRY55-Gly-Oct), unconjugated octreotide, or free cryptophycin-55-glycinate (CRY55-Gly), and the cells were incubated for 120 h at 37° C. in 5% CO2. Nine triplicate 1:3 serial dilution datapoints were recorded for each experimental condition (from 0.0015 nM to 10 nM for CRY55-Gly and CRY55-Gly-Oct, from 0.0015 uM to 10 uM for the unconjugated octreotide). At the end of the incubation luminescence was measured using a Perkin Elmer Wallac 1450 MicroBeta TriLux detector. Compound cytotoxicity was evaluated in comparison to cells treated with 0.1% DMSO. IC50 values were calculated by fitting viability data with a four-parameter logistic equation using a Kaleidagraph software. Residual cell viability plots obtained upon treatment of the AR42J and MCF7 cells with the different compounds are shown in FIG. 3 and FIG. 4, respectively.
# AR42J cells = assay: Cell viability assay (CellTiter-Glo), AR42J, 120 h; type: cell-based, rat; settings: 120 h incubation; for IC50: SSTR2-high AR42J
# Method: as §3, §4
molecule,measurement,setting,value
"COc1ccc(C[C@H]2NC(=O)/C=C/C[C@@H]([C@H](C)[C@@H](O)[C@@H](Cl)c3ccccc3)OC(=O)[C@H](CC(C)C)OC(=O)C(C)(C)CNC2=O)cc1Cl [Cry-55, Cryptophycin-55]",IC50,"H69 cells; Homo sapiens, NCI-H69",0.1 nM
same,IC50,H69AR cells; Homo sapiens,0.23 nM
same,CC50,"SK-BR3 cells; Homo sapiens, SK-BR-3, 96 h",0.076 nM
same,CC50,"MCF7 cells [1]; Homo sapiens, MCF7, 96 h",0.18 nM
same,CC50,"HCT116 cells; Homo sapiens, HCT-116, 96 h",0.1 nM
"COc1ccc(C[C@H]2NC(=O)/C=C/C[C@@H]([C@H](C)[C@@H](OC(=O)CN)[C@@H](Cl)c3ccccc3)OC(=O)[C@H](CC(C)C)OC(=O)C(C)(C)CNC2=O)cc1Cl [Cry-55-Gly, Cryptophycin-55-glycinate trifluoroacetate]",IC50,"H69 cells; Homo sapiens, NCI-H69",0.09 nM
same,IC50,"MCF7 cells [2]; Homo sapiens, MCF7, 120 h",0.2 nM
same,IC50,H69AR cells; Homo sapiens,0.15 nM
same,CC50,"SK-BR3 cells; Homo sapiens, SK-BR-3, 96 h",0.09 nM
same,CC50,"MCF7 cells [1]; Homo sapiens, MCF7, 96 h",0.25 nM
same,IC50,"AR42J cells; Rattus norvegicus, AR-42J",0.8 nM
same,CC50,"HCT116 cells; Homo sapiens, HCT-116, 96 h",0.19 nM
COc1ccc(C[C@H]2NC(=O)/C=C/C[C@@H]([C@H](C)[C@@H](OC(=O)CNC(=O)[C@@H]3CCCN3C(=O)CNC(=O)[C@H](CCCNC(N)=O)NC(=O)[C@@H](NC(=O)CCOCCOCCOCCOCCn3cc(CCC(=O)N[C@H](Cc4ccccc4)C(=O)N[C@H]4CSSCC(C(=O)N[C@H](CO)[C@@H](C)O)NC(=O)C([C@@H](C)O)NC(=O)[C@H](CCCCN)NC(=O)[C@@H](Cc5c[nH]c6ccccc56)NC(=O)[C@H](Cc5ccccc5)NC4=O)nn3)C(C)C)[C@@H](Cl)c3ccccc3)OC(=O)[C@H](CC(C)C)OC(=O)C(C)(C)CNC2=O)cc1Cl (some centres unmarked) [Oct-Cry55-Gly conjugate],"fold difference of IC50 on MCF7, conjugate versus cryptophycin-55-glycinate","MCF7 cells [2]; MCF7, 120 h incubation",90 fold
same,IC50,"MCF7 cells [2]; SSTR2-low MCF7, 120 h incubation",27 nM
same,IC50,AR42J cells,0.9 nM
C[C@@H](O)[C@@H]1NC(=O)[C@H](CCCCN)NC(=O)[C@@H](Cc2c[nH]c3ccccc23)NC(=O)[C@H](Cc2ccccc2)NC(=O)[C@@H](NC(=O)[C@H](N)Cc2ccccc2)CSSC[C@@H](C(=O)N[C@H](CO)[C@@H](C)O)NC1=O [Octreotide],"IC50, MCF7 (in words)","MCF7 cells [2]; SSTR2-low MCF7, 120 h, tested […] to 10 uM",completely ineffective
same,inhibition of AR42J viability,AR42J cells; up to 10 uM,30% inh. up to 10 uM
COc1cccc2c1C(=O)c1c(O)c3c(c(O)c1C2=O)C[C@@](O)(C(=O)CO)C[C@@H]3O[C@H]1C[C@H](N)[C@H](O)[C@H](C)O1 [doxorubicin],effect on H69AR cell viability (in words),"H69AR cells; 120 h, 1.2 nM to 2700 nM",only minor effects
Azide-TEG-Val-Cit-Gly-Pro-Gly-cryptophycin-55 [Example 5],IC50,H69 cells,1.7 nM
same,IC50,H69AR cells,3.6 nM
Maleimide-PEG-Val-Cit-Pro-Gly-Cryptophycin-55-glycinate [Cry-55-Linker],CC50,"SK-BR3 cells; HER2-positive SK-BR3, 96 h incubation",2.6 nM
same,CC50,"MCF7 cells [1]; Her2-low MCF7, 96 h incubation",6.1 nM
same,CC50,"HCT116 cells; Her2-low HCT116, 96 h incubation",4.4 nM

# — patent US20180078656A1, “CRYPTOPHYCIN-BASED ANTIBODY-DRUG CONJUGATES WITH NOVEL SELF-IMMOLATIVE LINKERS” (priority 2015, published 2018)
